Results from US20010049373A1, “Materials and methods for killing nematodes and nematode eggs” (priority 2000, published 2001).
Values joined by “and” are separate entries in the source; they are usually repeats but may differ in a detail not shown here. Identical values can stand only once.

Tests used:
[1] = system: gastrointestinal nematodes; assay: Sheep Test I: nematode recovery at necropsy, controlled anthelmintic test efficacy; assay type: in vivo; conditions: for Mean Ct, Abomasum Haemonchus / Mean Ct, Abomasum ostertagia / Mean Ct, Small Intest. Nematodirus / Mean Ct, Small Intestine Trichostrongylus: group mean; for Mean Ct, Abomasum Haemonchus / Mean Ct, Abomasum ostertagia / Mean Ct, Small Intest. Nematodirus / Mean Ct, Small Intestine Trichostrongylus / Worm Counts, Abomasum Haemonchus / Worm Counts, Abomasum ostertagia / Worm Counts, Small Intest. Nematodirus / Worm Counts, Small Intestine Trichostrongylus: necropsy seven days following treatment; for Worm Counts, Abomasum Haemonchus / Worm Counts, Abomasum ostertagia / Worm Counts, Small Intest. Nematodirus / Worm Counts, Small Intestine Trichostrongylus: individual sheep
Experimental: Sheep naturally infected with a variety of gastrointestinal nematodes are purchased from local sources and are transported to the test site. The animals are housed in a manner to preclude further infection by nematode larvae. The animals are evaluated for the presence of adequate nematode burdens by performing a standard fecal egg per gram (EPG) count. Eggs are differentiated into the following groups: trichostrongyle (strongyle), Strongyloides, Trichuris, or Nematodinis. Only sheep judged by the study parasitologist to have adequate nematode infections are retained as test subjects. The sheep are fed good quality hay (no concentrated rations) and water ad libitum. Following a five-day acclimation period, the sheep are randomly assigned by EPG count into treatment groups which include non-treated Negative control (placebo); […] The first replicate of 10 animals is randomly assigned to groups 1-10; the second replicate of 10 animals is randomly assigned to groups 1-10; and the third replicate of 10 animals is randomly assigned to groups 1-10. Thus 10 groups of 3 animals each is created. The placebo (DMSO), the commercially available drug, and the test anthelmintic compounds are administered in a 3 ml volume by subcutaneous injection using a sterile syringe fitted with a proper needle. The animal is adequately immobilized for injection of the placebo, commercially available drug, or test anthelmintic compound. Seven days following treatment the sheep are humanely slaughtered in accordance with the Guide for the Care and Use of Laboratory Animals (DHEW Publication No. 86-23). Necropsy procedures are according to Zimmerman Research SOP # […].99.01, Necropsy for Helminth Recovery, specifically for gastrointestinal nematodes. Fecal samples are taken for EPG counts during the sample collection process on this day. All animals are necropsied, but only the animals from the experimental treatment groups that have a significant egg count reduction on day 5 or day 7 will have intestinal material collected for nematode recovery and identification. Nematodes are recovered, identified, and enumerated according to Zimmerman Research SOP # […].99.01. All individuals performing nematode recoveries are blinded to treatment versus control animals. Preliminary estimates of total nematodes recovered from each gut sample are provided prior to identification and enumerations by the study parasitologist. At the discretion of the study parasitologist, seven days after the drug administration fecal egg counts are performed and all animals showing 90% or better trichostrongylid egg reduction will be slaughtered using humane methods recommended by the AVMA. The neck blood vessels are severed and after the animal is completely exsanguinated, the abdomen are opened. The abomasum, the small and large intestines are tied at the omasal and pyloric openings, the duodenum, the end of the small intestine and at the end of the large intestine. Each section is transferred in a separate bucket containing warm water and is slit open and thoroughly washed. The epithelium is inspected before it is removed. The thus prepared washings are saved in gallon jars. An appropriate preservative is added. If preservative is not available, all the intestinal washing should kept in a refrigerator. These washings are passed through a 100-mesh sieve (pore size […]), and the residue is examined for the presence of worms under a dissecting microscope, Lugol's solution may be used to stain the worms. All worms are picked up counted and identified as to the species. An effort should be made to recover any immature forms present.

[2] = system: gastrointestinal nematodes (trichostrongyle, Strongyloides, Trichuris, Nematodirus eggs); assay: Sheep Test II: fecal egg per gram (EPG) counts; assay type: in vivo; conditions: for % Change, Strongyles EPG-5 day vs EPG-pre, Total/Mean / Strongyles EPG-5 day (22-May), Total/Mean / % Change, Strongyles EPG-7 day vs EPG-pre, Total/Mean / Strongyles EPG-7 day (24-May), Total/Mean: group mean; for % Change, Strongyles EPG-5 day vs EPG-pre, Total/Mean / Strongyles EPG-5 day (22-May), Total/Mean / Strongyles EPG-5 day (22-May): 5 days after treatment; for % Change, Strongyles EPG-7 day vs EPG-pre, Total/Mean / Strongyles EPG-7 day (24-May), Total/Mean / % Change, Strongyles EPG-7 day vs EPG-pre / Strongyles EPG-7 day (24-May): 7 days after treatment; for Strongyles EPG-5 day (22-May) / % Change, Strongyles EPG-7 day vs EPG-pre / Strongyles EPG-7 day (24-May): individual sheep
Experimental: Sheep naturally infected with a variety of gastrointestinal nematodes are purchased from local sources and are transported to the test site. The animals are housed in a manner to preclude further infection by nematode larvae. The animals are evaluated for the presence of adequate nematode burdens by performing a standard fecal egg per gram (EPG) count. Eggs are differentiated into the following groups: trichostrongyle (strongyle), Strongyloides, Trichuris, or Nematodiris. Only sheep judged by the study parasitologist to have adequate nematode infections are retained as test subjects.
The sheep are fed good quality hay (no concentrated rations) and water ad libitum. Following a five day acclimation period, the sheep are randomly assigned by EPG count into the following treatment groups: Groups 1-9, various anthelmintic compounds of the present invention (test compound) dissolved in DMSO: Group 10, Positive Control (commercially available ivermectin for sheep); Group 11, non-treated Negative control (DMSO only). The first replicate of 1 I animals is randomly assigned to groups 1-1; the second replicate of 11 animals is randomly assigned to groups 1-11; and the third replicate of 11 animals is randomly assigned to groups 1-1. Thus 11 groups of 3 animals each are created.
The randomization is performed on fecal samples collected 24-48 hours prior to scheduled treatment. The EPG counts are performed according to Zimmerman Research SOP # NMEPG.99.01.
The placebo (DMSO), the commercially available drug, and the test anthelmintic compounds are administered in a 3 ml volume of DMSO by subcutaneous injection using a sterile syringe fitted with a sterile needle. The site of injection is clipped and swabbed with alcohol prior to injection. The animal is adequately immobilized for injection of the placebo, commercially available drug, or experimental compound.
Following treatment, the animals are observed at hourly intervals for the first 8 hours, then daily until necropsy. They are housed in a manner to prevent further nematode infections.
On the fifth day following treatment, fecal samples are obtained from each animal, properly labeled and used for EPG counts.
Seven days following treatment, all the sheep are weighed and humanely slaughtered in accordance with the Guide for the Care and Use of Laboratory Animals (DHEW Publication No. 86-23). Necropsy procedures are according to Zimmerman Research SOP # NCRGIH.00.01, Necropsy for Helminth Recovery, specifically for gastrointestinal nematodes. Fecal samples are taken for EPG counts during the sample collection process on this day.

[3] = AKC 109 1.4 mg/kg, vs negative control mean count
[4] = Ivermectin 200 mcg/kg, vs negative control mean count

Q: For `CCC1CCCCN1c1cc(Oc2ccc3oc4ccccc4c3c2)ncn1` (stereo not drawn) [AKC 109], which “% Efficacy, Abomasum ostertagia” value [1, 3] is on record?
A: The value was 98%.

Q: And the “% Efficacy, Small Intest. Nematodirus” value [1, 3]?
A: Its value is 57%.

Q: And the “Mean Ct, Abomasum Haemonchus” value ([1]; AKC 109 1.4 mg/kg)?
A: Its value is 507.

Q: And the “Mean Ct, Abomasum ostertagia” value ([1]; AKC 109 1.4 mg/kg)?
A: Its value is 7.

Q: What about the “Mean Ct, Small Intest. Nematodirus” value ([1]; AKC 109 1.4 mg/kg) of the same molecule?
A: Its value is 353.

Q: And the “Mean Ct, Small Intestine Trichostrongylus” value ([1]; AKC 109 1.4 mg/kg)?
A: Its value is 233.

Q: What about the “Worm Counts, Abomasum Haemonchus” value ([1]; AKC 109 1.4 mg/kg, 1.4 mg/kg) of the same molecule?
A: The value was 20 and 1500 and 0.

Q: What about the “Worm Counts, Abomasum ostertagia” value ([1]; AKC 109 1.4 mg/kg, 1.4 mg/kg) of the same molecule?
A: The value was 20 and 0 (2×).

Q: And the “Worm Counts, Small Intest. Nematodirus” value ([1]; AKC 109 1.4 mg/kg, 1.4 mg/kg)?
A: The value was 100 and 500 and 460.

Q: And the “Worm Counts, Small Intestine Trichostrongylus” value ([1]; AKC 109 1.4 mg/kg, 1.4 mg/kg)?
A: Its value is 540 and 160 and 0.

Q: What about the “% Change, Strongyles EPG-5 day vs EPG-pre, Total/Mean” value ([2]; AKC 109 .8 mg/kg) of the same molecule?
A: Its value is 51.49%.

Q: What about the “Strongyles EPG-5 day (22-May), Total/Mean” value ([2]; AKC 109 .8 mg/kg) of the same molecule?
A: The value was 245.00 EPG.

Q: And the “% Change, Strongyles EPG-7 day vs EPG-pre, Total/Mean” value ([2]; AKC 109 .8 mg/kg)?
A: Its value is 50.50%.

Q: What about the “Strongyles EPG-7 day (24-May), Total/Mean” value ([2]; AKC 109 .8 mg/kg) of the same molecule?
A: The value was 250.00 EPG.

Q: What about the “Strongyles EPG-5 day (22-May)” value ([2]; AKC 109 .8 mg/kg) of the same molecule?
A: Its value is 360 EPG and 130 EPG.

Q: What about the “% Change, Strongyles EPG-7 day vs EPG-pre” value ([2]; AKC 109 .8 mg/kg) of the same molecule?
A: Its value is 63.93% and 30.00%.

Q: And the “Strongyles EPG-7 day (24-May)” value ([2]; AKC 109 .8 mg/kg)?
A: Its value is 220 EPG and 280 EPG.

Q: What does the source list for 22,23-dihydroavermectin B1 [ivermectin]?
A: % Efficacy, Abomasum Haemonchus [1, 4]: 100%; % Efficacy, Abomasum ostertagia [1, 4]: 100%; % Efficacy, Small Intest. Nematodirus [1, 4]: 100%; % Efficacy, Small Intestine Trichostrongylus [1, 4]: 100%; Mean Ct, Abomasum Haemonchus ([1]; Ivermectin 200 mcg/kg): 0; Mean Ct, Abomasum ostertagia ([1]; Ivermectin 200 mcg/kg): 0; Mean Ct, Small Intest. Nematodirus ([1]; Ivermectin 200 mcg/kg): 0; Mean Ct, Small Intestine Trichostrongylus ([1]; Ivermectin 200 mcg/kg): 0; Worm Counts, Abomasum Haemonchus ([1]; Ivermectin 200 mcg/kg): 0; Worm Counts, Abomasum ostertagia ([1]; Ivermectin 200 mcg/kg): 0; Worm Counts, Small Intest. Nematodirus ([1]; Ivermectin 200 mcg/kg): 0; Worm Counts, Small Intestine Trichostrongylus ([1]; Ivermectin 200 mcg/kg): 0; % Change, Strongyles EPG-5 day vs EPG-pre, Total/Mean ([2]; Ivermectin 200 mcg/kg): 100.00%; Strongyles EPG-5 day (22-May), Total/Mean ([2]; Ivermectin 200 mcg/kg): 0.00 EPG; % Change, Strongyles EPG-7 day vs EPG-pre, Total/Mean ([2]; Ivermectin 200 mcg/kg): 100.00%; Strongyles EPG-7 day (24-May), Total/Mean ([2]; Ivermectin 200 mcg/kg): 0.00 EPG; Strongyles EPG-5 day (22-May) ([2]; Ivermectin 200 mcg/kg): 0 EPG; % Change, Strongyles EPG-7 day vs EPG-pre ([2]; Ivermectin 200 mcg/kg): 100.00%; Strongyles EPG-7 day (24-May) ([2]; Ivermectin 200 mcg/kg): 0 EPG
